Assay results as given in patent US20230295142A1, “NOVEL COMPOUNDS AS HISTONE DEACETYLASE 6 INHIBITOR, AND PHARMACEUTICAL COMPOSITION COMPRISING THE SAME” (CHONG KUN DANG PHARMACEUTICAL CORP., priority 2020, published 2023).

Key:
HDAC1 = HDAC1 (Homo sapiens (Human), UniProt Q13547); assay: HDAC1 enzyme activity inhibition (HDAC1 Fluorimetric Drug Discovery Assay Kit); type: biochemical; conditions: samples at 100, 1000 and 10000 nM; 37° C. 60 minutes
Description: (§1) A HDAC enzyme inhibitory capacity of a test material was measured by using HDAC1 Fluorimetric Drug Discovery Assay Kit (Enzolifesciences: BML-AK511) and HDAC6 human recombinant (Calbiochem: 382180). For a HDAC1 assay, samples were treated at a concentration of 100, 1000 and 10000 nM. For a HDAC6 assay, samples were treated at a concentration of 0.1, 1, 10, 100 and 1000 nM. After the above sample treatment, a reaction was continued at 37° C. for 60 minutes, treated with a developer, and subjected to reaction at 37° C. for 30 minutes, after which fluorescence intensity (Ex 390, Em 460) was measured by using FlexStatin3 (Molecular device).

HDAC6 human recombinant = HDAC6 human recombinant (Homo sapiens (Human), UniProt Q9UBN7); assay: HDAC6 enzyme activity inhibition (fluorimetric, in vitro); type: biochemical; conditions: samples at 0.1, 1, 10, 100 and 1000 nM; 37° C. 60 minutes
Description: as §1

HDAC1, sequence (Q13547 whole entry): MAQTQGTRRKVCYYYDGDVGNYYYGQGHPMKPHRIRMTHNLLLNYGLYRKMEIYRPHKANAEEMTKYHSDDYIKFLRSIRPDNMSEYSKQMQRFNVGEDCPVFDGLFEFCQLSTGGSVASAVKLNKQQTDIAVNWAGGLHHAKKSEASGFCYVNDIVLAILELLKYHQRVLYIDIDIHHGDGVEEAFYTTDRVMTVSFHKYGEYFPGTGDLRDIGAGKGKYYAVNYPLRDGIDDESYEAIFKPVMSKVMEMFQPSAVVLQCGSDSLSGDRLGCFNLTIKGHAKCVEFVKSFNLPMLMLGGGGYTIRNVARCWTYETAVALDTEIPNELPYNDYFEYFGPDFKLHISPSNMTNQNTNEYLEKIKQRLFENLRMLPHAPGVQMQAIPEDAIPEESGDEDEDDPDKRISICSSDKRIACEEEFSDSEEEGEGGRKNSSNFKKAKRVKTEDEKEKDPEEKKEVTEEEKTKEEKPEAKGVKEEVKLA
HDAC6 human recombinant, sequence (Q9UBN7 whole entry): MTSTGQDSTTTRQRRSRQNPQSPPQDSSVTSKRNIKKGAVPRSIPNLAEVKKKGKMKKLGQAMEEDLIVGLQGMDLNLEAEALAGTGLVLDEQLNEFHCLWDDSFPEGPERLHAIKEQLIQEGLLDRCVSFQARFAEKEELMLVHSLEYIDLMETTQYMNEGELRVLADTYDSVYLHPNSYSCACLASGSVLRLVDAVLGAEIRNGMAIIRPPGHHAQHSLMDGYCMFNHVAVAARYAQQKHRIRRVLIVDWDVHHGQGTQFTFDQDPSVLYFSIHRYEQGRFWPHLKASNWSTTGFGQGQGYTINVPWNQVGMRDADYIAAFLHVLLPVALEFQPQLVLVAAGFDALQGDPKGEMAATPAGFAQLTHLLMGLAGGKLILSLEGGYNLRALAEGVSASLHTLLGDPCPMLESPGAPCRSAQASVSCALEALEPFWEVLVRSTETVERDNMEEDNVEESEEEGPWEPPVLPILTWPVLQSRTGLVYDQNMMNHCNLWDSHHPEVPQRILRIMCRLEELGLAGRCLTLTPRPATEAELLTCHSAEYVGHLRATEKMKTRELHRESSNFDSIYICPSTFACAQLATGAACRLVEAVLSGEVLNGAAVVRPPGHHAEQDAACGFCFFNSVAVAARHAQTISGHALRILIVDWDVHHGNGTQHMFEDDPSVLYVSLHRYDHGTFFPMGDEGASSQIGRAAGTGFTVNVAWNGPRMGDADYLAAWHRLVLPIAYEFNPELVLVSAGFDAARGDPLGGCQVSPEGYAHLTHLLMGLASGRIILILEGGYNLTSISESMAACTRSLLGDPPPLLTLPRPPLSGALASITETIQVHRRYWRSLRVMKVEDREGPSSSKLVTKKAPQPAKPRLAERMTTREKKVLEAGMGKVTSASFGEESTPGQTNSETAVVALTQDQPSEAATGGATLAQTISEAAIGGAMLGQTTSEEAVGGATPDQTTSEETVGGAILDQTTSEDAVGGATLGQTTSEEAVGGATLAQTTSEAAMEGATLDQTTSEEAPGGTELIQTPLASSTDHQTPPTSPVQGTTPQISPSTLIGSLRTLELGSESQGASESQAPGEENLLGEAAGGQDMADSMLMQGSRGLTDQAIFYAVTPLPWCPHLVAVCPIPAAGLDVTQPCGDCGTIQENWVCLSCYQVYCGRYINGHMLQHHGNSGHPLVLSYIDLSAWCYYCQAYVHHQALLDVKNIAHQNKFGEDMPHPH

Row | SMILES | IC50 (HDAC1) [µM] | IC50 (HDAC6 human recombinant) [µM]
1 | CC(=O)N1CCc2c1cccc2N1C(=O)N(Cc2ccc(-c3nnc(C(F)F)o3)cn2)C(=O)C1(C)C [Compound 37, 1-(1-acetylindolin-4-yl)-3-((5-(5-(difluoromethyl)-1,3,4-oxadiazol-2-yl)pyridin-2-yl)methyl)-5,5-dimethylimidazolidin-2,4-dione] | > 10 | 0.068
2 | CC1(C)C(=O)N(Cc2ccc(-c3nnc(C(F)F)o3)cn2)C(=O)N1c1cccc(N)c1 [Compound 35, 1-(3-aminophenyl)-3-((5-(5-(difluoromethyl)-1,3,4-oxadiazol-2-yl)pyridin-2-yl)methyl)-5,5-dimethylimidazolidin-2,4-dione] | > 10 | 0.052
3 | CC1(C)C(=O)N(Cc2ccc(-c3nnc(C(F)F)o3)cn2)C(=O)N1c1ccc(-c2cccc(F)c2)cc1 [Compound 28, 3-((5-(5-(difluoromethyl)-1,3,4-oxadiazol-2-yl)pyridin-2-yl)methyl)-1-(3′-fluoro-[1,1′-biphenyl]-4-yl)-5,5-dimethylimidazolidin-2,4-dione] | > 10 | 0.168
4 | CC1(C)C(=O)N(Cc2ccc(-c3nnc(C(F)F)o3)cn2)C(=O)N1c1cccc2c1CCN2 [Compound 33, 3-((5-(5-(difluoromethyl)-1,3,4-oxadiazol-2-yl)pyridin-2-yl)methyl)-1-(indolin-4-yl)-5,5-dimethylimidazolidin-2,4-dione] | > 10 | 0.058
5 | CC1(C)C(=O)N(Cc2ccc(-c3nnc(C(F)F)o3)cn2)C(=O)N1c1cccc(Br)c1 [Compound 11, 1-(3-bromophenyl)-3-((5-(5-(difluoromethyl)-1,3,4-oxadiazol-2-yl)pyridin-2-yl)methyl)-5,5-dimethylimidazolidin-2,4-dione] | > 10 | 0.056
6 | O=C1CN(c2ccccc2)C(=O)N1Cc1ccc(-c2nnc(C(F)F)o2)cn1 [Compound 4, 3-((5-(5-(difluoromethyl)-1,3,4-oxadiazol-2-yl)pyridin-2-yl)methyl)-1-phenylimidazolidin-2,4-dione] | > 10 | 0.099
7 | CC1(C)C(=O)N(c2ccccc2)C(=O)N1Cc1ccc(-c2nnc(C(F)F)o2)cc1F [Compound 1, 1-(4-(5-(difluoromethyl)-1,3,4-oxadiazol-2-yl)-2-fluorobenzyl)-5,5-dimethyl-3-phenylimidazolidin-2,4-dione] | > 10 | 0.665
8 | CC(C)(C)OC(=O)N1CCC2(CC1)C(=O)N(Cc1ccc(-c3nnc(C(F)F)o3)cn1)C(=O)N2c1cccc(F)c1 [Compound 5, tert-butyl 3-((5-(5-(difluoromethyl)-1,3,4-oxadiazol-2-yl)pyridin-2-yl)methyl)-1-(3-fluorophenyl)-2,4-dioxo-1,3,8-triazaspiro[4.5]decan-8-carboxylate] | > 10 | 0.206
9 | CC1(C)C(=O)N(Cc2ccc(-c3nnc(C(F)F)o3)cn2)C(=O)N1c1c(F)cccc1F [Compound 13, 3-((5-(5-(difluoromethyl)-1,3,4-oxadiazol-2-yl)pyridin-2-yl)methyl)-1-(2,6-difluorophenyl)-5,5-dimethylimidazolidin-2,4-dione] | > 10 | 0.027
10 | CC(C)(C)OC(=O)N1CCc2c1cccc2N1C(=O)N(Cc2ccc(-c3nnc(C(F)F)o3)cn2)C(=O)C1(C)C [Compound 31, tert-butyl 4-(3-((5-(5-(difluoromethyl)-1,3,4-oxadiazol-2-yl)pyridin-2-yl)methyl)-5,5-dimethyl-2,4-dioxoimidazolidin-1-yl)indolin-1-carboxylate] | > 10 | 0.316
11 | CC(=O)N1CC2(C1)C(=O)N(Cc1ccc(-c3nnc(C(F)F)o3)cn1)C(=O)N2c1ccccc1 [Compound 23, 2-acetyl-7-((5-(5-(difluoromethyl)-1,3,4-oxadiazol-2-yl)pyridin-2-yl)methyl)-5-phenyl-2,5,7-triazaspiro[3.4]octan-6,8-dione] | > 10 | 0.369
12 | CC1(C)C(=O)N(Cc2ccc(-c3nnc(C(F)F)o3)cn2)C(=O)N1c1ccc(F)cc1 [Compound 12, 3-((5-(5-(difluoromethyl)-1,3,4-oxadiazol-2-yl)pyridin-2-yl)methyl)-1-(4-fluorophenyl)-5,5-dimethylimidazolidin-2,4-dione] | > 10 | 0.06
13 | CC(C)(C)OC(=O)n1ccc2c(N3C(=O)N(Cc4ccc(-c5nnc(C(F)F)o5)cn4)C(=O)C3(C)C)cccc21 [Compound 30, tert-butyl 4-(3-((5-(5-(difluoromethyl)-1,3,4-oxadiazol-2-yl)pyridin-2-yl)methyl)-5,5-dimethyl-2,4-dioxoimidazolidin-1-yl)-1H-indol-1-carboxylate] | > 10 | 0.578
14 | CC1(C)C(=O)N(Cc2ccc(-c3nnc(C(F)F)o3)cn2)C(=O)N1c1cc(F)cc(F)c1 [Compound 17, 3-((5-(5-(difluoromethyl)-1,3,4-oxadiazol-2-yl)pyridin-2-yl)methyl)-1-(3,5-difluorophenyl)-5,5-dimethylimidazolidin-2,4-dione] | > 10 | 0.069
15 | CC(=O)Nc1cccc(N2C(=O)N(Cc3ccc(-c4nnc(C(F)F)o4)cn3)C(=O)C2(C)C)c1 [Compound 36, N-(3-(3-((5-(5-(difluoromethyl)-1,3,4-oxadiazol-2-yl)pyridin-2-yl)methyl)-5,5-dimethyl-2,4-dioxoimidazolidin-1-yl)phenyl)acetamide] | > 10 | 0.035
16 | CN1CCC(c2cccc(N3C(=O)N(Cc4ccc(-c5nnc(C(F)F)o5)cn4)C(=O)C3(C)C)c2)CC1 [Compound 20, 3-((5-(5-(difluoromethyl)-1,3,4-oxadiazol-2-yl)pyridin-2-yl)methyl)-5,5-dimethyl-1-(3-(1-methylpiperidin-4-yl)phenyl)imidazolidin-2,4-dione] | > 10 | 0.09
17 | CC(C)N1CC2(C1)C(=O)N(Cc1ccc(-c3nnc(C(F)F)o3)cn1)C(=O)N2c1ccccc1 [Compound 22, 7-((5-(5-(difluoromethyl)-1,3,4-oxadiazol-2-yl)pyridin-2-yl)methyl)-2-isopropyl-5-phenyl-2,5,7-triazaspiro[3.4]octan-6,8-dione] | > 10 | 0.191
18 | CC1(C)C(=O)N(Cc2ccc(-c3nnc(C(F)F)o3)cn2)C(=O)N1c1ccc(F)c(F)c1 [Compound 16, 3-((5-(5-(difluoromethyl)-1,3,4-oxadiazol-2-yl)pyridin-2-yl)methyl)-1-(3,4-difluorophenyl)-5,5-dimethylimidazolidin-2,4-dione] | > 10 | 0.142
19 | O=C1CN(c2ccccc2)C(=O)N1Cc1ncc(-c2nnc(C(F)F)o2)cn1 [Compound 9, 3-((5-(5-(difluoromethyl)-1,3,4-oxadiazol-2-yl)pyrimidin-2-yl)methyl)-1-phenylimidazolidin-2,4-dione] | > 10 | 0.147
20 | CC1(C)C(=O)N(Cc2ccc(-c3nnc(C(F)F)o3)cn2)C(=O)N1c1cccc(F)c1F [Compound 15, 3-((5-(5-(difluoromethyl)-1,3,4-oxadiazol-2-yl)pyridin-2-yl)methyl)-1-(2,3-difluorophenyl)-5,5-dimethylimidazolidin-2,4-dione] | > 10 | 0.043
21 | CC1(C)C(=O)N(c2ccccc2)C(=O)N1Cc1ccc(-c2nnc(C(F)(F)F)o2)cc1F [Compound 2, 1-(2-fluoro-4-(5-(trifluoromethyl)-1,3,4-oxadiazol-2-yl)benzyl)-5,5-dimethyl-3-phenylimidazolidin-2,4-dione] | > 10 | 0.958
22 | CC1(C)C(=O)N(Cc2ccc(-c3nnc(C(F)F)o3)cn2)C(=O)N1c1ccc(-c2ccccc2F)cc1 [Compound 29, 3-((5-(5-(difluoromethyl)-1,3,4-oxadiazol-2-yl)pyridin-2-yl)methyl)-1-(2′-fluoro-[1,1′-biphenyl]-4-yl)-5,5-dimethylimidazolidin-2,4-dione] | > 10 | 0.165
23 | O=C1N(Cc2ccc(-c3nnc(C(F)F)o3)cn2)C(=O)C2(CCN(C3COC3)CC2)N1c1cccc(F)c1 [Compound 7, 3-((5-(5-(difluoromethyl)-1,3,4-oxadiazol-2-yl)pyridin-2-yl)methyl)-1-(3-fluorophenyl)-8-(oxetan-3-yl)-1,3,8-triazaspiro[4.5]decan-2,4-dione] | > 10 | 0.1
24 | CC1(C)C(=O)N(Cc2ccc(-c3nnc(C(F)F)o3)cn2)C(=O)N1c1ccccc1 [Compound 18, 3-((5-(5-(difluoromethyl)-1,3,4-oxadiazol-2-yl)pyridin-2-yl)methyl)-5,5-dimethyl-1-phenylimidazolidin-2,4-dione] | > 10 | 0.079
25 | O=C1N(Cc2ccc(-c3nnc(C(F)F)o3)cn2)C(=O)C2(CCC2)N1c1ccccc1 [Compound 24, 7-((5-(5-(difluoromethyl)-1,3,4-oxadiazol-2-yl)pyridin-2-yl)methyl)-5-phenyl-5,7-diazaspiro[3.4]octan-6,8-dione] | > 10 | 0.056
26 | CC1(C)C(=O)N(Cc2ccc(-c3nnc(C(F)F)o3)cn2)C(=O)N1c1cccc2[nH]ccc12 [Compound 32, 3-((5-(5-(difluoromethyl)-1,3,4-oxadiazol-2-yl)pyridin-2-yl)methyl)-1-(1H-indol-4-yl)-5,5-dimethylimidazolidin-2,4-dione] | > 10 | 0.055
27 | CC1(C)C(=O)N(Cc2ccc(-c3nnc(C(F)F)o3)cn2)C(=O)N1c1cccc(F)c1 [Compound 10, 3-((5-(5-(difluoromethyl)-1,3,4-oxadiazol-2-yl)pyridin-2-yl)methyl)-1-(3-fluorophenyl)-5,5-dimethylimidazolidin-2,4-dione] | > 10 | 0.053
